Drawing on publication PMC6934184, “Selective DNA-PKcs inhibition extends the therapeutic index of localized radiotherapy and chemotherapy” (The Journal of Clinical Investigation, 2019), this text covers inhibition for one compound.

The assay addresses T1, FER (Homo sapiens, UniProt P16591).
T1 construct: purchased Thermo Fisher Scientific (Life Technologies) SelectScreen
As to the kind of experiment: SelectScreen Z'LYTE. Format: biochemical. The essentials:
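NU5455 was profiled across the SelectScreen Broad panel of kinase activity and binding assays. Z'LYTE reactions such as CSF1R ran at apparent Km ATP, while the Adapta CAMK1 assay used ATP listed as 10. Values are given as percent.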

For orientation: inhibition means the change of the read-out against control, counted positive when it falls. Lower therefore signals little suppression.

T1 sequence (P16591 whole entry): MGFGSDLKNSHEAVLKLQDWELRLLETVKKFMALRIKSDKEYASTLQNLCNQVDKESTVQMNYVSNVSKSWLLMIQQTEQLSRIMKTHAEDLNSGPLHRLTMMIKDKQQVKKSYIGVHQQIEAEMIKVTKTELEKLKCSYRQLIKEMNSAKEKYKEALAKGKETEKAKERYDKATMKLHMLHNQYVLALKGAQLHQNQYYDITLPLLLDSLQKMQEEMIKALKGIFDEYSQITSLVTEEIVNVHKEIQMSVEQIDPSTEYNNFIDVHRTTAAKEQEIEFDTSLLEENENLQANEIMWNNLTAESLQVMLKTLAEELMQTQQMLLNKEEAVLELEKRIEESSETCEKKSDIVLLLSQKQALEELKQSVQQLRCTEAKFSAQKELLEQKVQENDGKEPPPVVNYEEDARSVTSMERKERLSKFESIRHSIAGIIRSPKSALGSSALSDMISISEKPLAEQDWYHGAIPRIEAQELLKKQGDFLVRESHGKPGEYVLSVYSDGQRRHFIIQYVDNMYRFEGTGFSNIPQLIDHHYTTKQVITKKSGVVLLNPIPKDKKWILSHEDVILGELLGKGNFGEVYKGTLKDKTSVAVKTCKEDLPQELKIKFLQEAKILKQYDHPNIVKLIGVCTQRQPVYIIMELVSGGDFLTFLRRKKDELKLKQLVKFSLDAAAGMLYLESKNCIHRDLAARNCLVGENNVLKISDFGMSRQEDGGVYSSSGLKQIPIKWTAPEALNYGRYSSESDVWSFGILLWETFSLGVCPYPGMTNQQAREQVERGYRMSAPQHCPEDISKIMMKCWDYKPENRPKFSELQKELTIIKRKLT

`CN(C(=O)CN1CCOCC1)c1ccc2sc3c(-c4cccc5c(=O)cc(N6CC7CCC(C6)O7)oc45)cccc3c2c1` [NU5455]: the inhibition at 1 µM amounted to 7.1%.
